Measurements as given in article PMC3877896, “New Dimeric Members of the Phomoxanthone Family: Phomolactonexanthones A, B and Deacetylphomoxanthone C Isolated from the Fungus Phomopsis sp” (Marine Drugs, 2013).

What was measured:
[1] = tested on: MDA-MB-435 human breast cancer cell line; assay: MTT cytotoxicity assay, MDA-MB-435; format: cell-based; conditions: mean ± SD of three independent experiments
Protocol: (§1) These phomoxanthone compounds (1–8) were evaluated for their cyctotoxic activity in vitro against four human cancer cell lines including human breast MDA-MB-435, human colon HCT-116, human lung Calu-3 and human liver Huh7, compared with their effects on the immortalized human breast epithelial cell line MCF-10A by MTT assay using epirubicin (an anticancer drug used widely in the clinic) as positive control.
(§2) MDA-MB-435, HCT-116, Calu-3 and Huh7 were cultured in Dulbecco’s modification Eagle’s medium (DMEM, Invitrogen, Carlsbad, CA, USA) supplemented with 10% fetal bovine serum (FBS, Hyclone, Logan, UT, USA), 2 mM L-glutamine, 100 μg/mL streptomycin and 100 U/mL penicillin (Invitrogen, Carlsbad, CA, USA). MCF-10A cells were cultured in keratinocyte serum free medium (KSFM) supplemented with 0.1–0.2 ng/mL human recombinant epidermal growth factor and 20–30 μg/mL bovine pituitary extract (Invitrogen, Carlsbad, CA, USA). The cells were incubated at 37 °C in a humidified atmosphere with 5% CO2.
(§3) Cells were harvested during logarithmic growth phase and seeded in 96-well plates at a density of 1 × 10^4 cells/mL, and cultured at 37 °C in a humidified incubator (5% CO2) for 24 h, followed by exposure to various concentrations of compounds tested for 48 h. Subsequently 20 μL of MTT (Genview, Houston, TX, USA) solution (5 mg/mL) was added to each well and mixed, the cells were then incubated for an additional 4 h. Culture supernatant was removed using the micropipette, 150 μL of DMSO (Sangon Biotech, Shanghai, China) was added to each well to fully dissolve the MTT-formazan crystals. Cell growth inhibition was determined by measuring the absorbance (Abs) at λ = 570 nm using a microplate reader and calculated according to the following equation: Growth inhibition = (1 − OD of treated cells/OD of control cells) × 100%
(§4) The half maximal inhibitory concentrations (IC50) were obtained from linear regression analysis of the concentration-response curves plotted for each tested compound.

[2] = tested on: HCT-116 human colon cancer cell line; assay: MTT cytotoxicity assay, HCT-116; format: cell-based; conditions: mean ± SD of three independent experiments
Protocol: as §1, §2, §3, §4

[3] = tested on: Calu-3 human lung cancer cell line; assay: MTT cytotoxicity assay, Calu-3; format: cell-based; conditions: mean ± SD of three independent experiments
Protocol: as §1, §2, §3, §4

[4] = tested on: Huh7 human liver cancer cell line; assay: MTT cytotoxicity assay, Huh7; format: cell-based; conditions: Huh-7, 48 h exposure, mean ± SD of three independent experiments
Protocol: as §1, §2, §3, §4

[5] = MTT cytotoxicity assay, MCF-10A; format: cell-based, human; conditions: human, MCF-10A cells, 48 h exposure, mean ± SD of three independent experiments
Protocol: as §1, §2, §3, §4

[6] = tested on: MCF-10A immortalized human breast epithelial cell line; assay: MTT cytotoxicity assay, MCF-10A; format: cell-based; conditions: MCF-10A
Protocol: as §1, §2, §3, §4

[7] = tested on: four human cancer cell lines (MDA-MB-435, HCT-116, Calu-3, Huh7); assay: MTT cytotoxicity assay, tested cancer cell lines taken together; format: cell-based; conditions: for cytotoxic activities against tested cancer cell lines (in words): MDA-MB-435, HCT-116, Calu-3, Huh7
Protocol: as §1, §2, §3, §4

HCT-116 (colon tumor) = tested on: HCT-116 (colon tumor); set-up: method as in PMID 11520215; conditions: cited from earlier work
A549 (lung tumor) = tested on: A549 (lung tumor); set-up: method as in PMID 11520215; conditions: cited from earlier work
[8] = Homo sapiens, MDA-MB-435, 48 h, 48 h exposure
[9] = Homo sapiens, HCT-116, 48 h, 48 h exposure
[10] = Homo sapiens, Calu-3, 48 h, 48 h exposure
[11] = Homo sapiens, HCT-116, 48 h exposure
[12] = Homo sapiens, Calu-3, 48 h exposure

CC(=O)OCC1(C2OC(=O)CC2C)CC(=O)c2c(O)ccc(-c3ccc4c(c3O)C(=O)C3=C(O)CC(C)C(OC(C)=O)C3(CO)O4)c2O1 (stereo not drawn) [Compound 1, Phomolactonexanthone A]
IC50 [1, 8]: > 50 µM
IC50 [2, 9]: > 50 µM
IC50 [3, 10]: 43.5 ± 2.51 µM
IC50 [4]: > 50 µM
IC50 at 48 h [5]: > 50 µM
cytotoxic effect on the immortalized human breast epithelial cell line (in words) [6]: no cytotoxic effect
cytotoxic activities against tested cancer cell lines (in words) ([7]; MTT): weak/no cytotoxic activities

CC(=O)OCC1(C2OC(=O)CC2C)CC(=O)c2c(ccc(-c3ccc4c(c3O)C(=O)C3=C(O)CC(C)C(OC(C)=O)C3(CO)O4)c2O)O1 (stereo not drawn) [Compound 2, Phomolactonexanthone B]
IC50 ([1]; Homo sapiens, MDA-MB-435, 48 h exposure): > 50 µM
IC50 [2, 11]: > 50 µM
IC50 [3, 12]: > 50 µM
IC50 [4]: > 50 µM
IC50 at 48 h [5]: > 50 µM
cytotoxic effect on the immortalized human breast epithelial cell line (in words) [6]: no cytotoxic effect
cytotoxic activities against tested cancer cell lines (in words) ([7]; MTT): weak/no cytotoxic activities
melting point: 101.6 to 102.4 °C

CC(=O)O[C@@H]1[C@H](C)CC(O)=C2C(=O)c3c(O)ccc(-c4ccc(O)c5c4O[C@@]4(CO)C(=C(O)C[C@@H](C)[C@H]4OC(C)=O)C5=O)c3O[C@@]21CO [Compound 3, Deacetylphomoxanthone C]
IC50 [1, 8]: > 50 µM
IC50 [2, 9]: 44.1 ± 3.29 µM
IC50 [3, 10]: 43.4 ± 2.09 µM
IC50 [4]: > 50 µM
IC50 at 48 h [5]: > 50 µM
cytotoxic effect on the immortalized human breast epithelial cell line (in words) [6]: no cytotoxic effect
cytotoxic activities against tested cancer cell lines (in words) ([7]; MTT): weak/no cytotoxic activities

CC(=O)O[C@@H]1[C@H](C)CC(O)=C2C(=O)c3c(ccc(-c4ccc5c(c4O)C(=O)C4=C(O)C[C@@H](C)[C@@H](OC(C)=O)[C@@]4(CO)O5)c3O)O[C@@]21CO [Compound 4, dicerandrol A]
IC50 [1, 8]: 3.03 ± 0.12 µM
IC50 [2, 9]: 2.64 ± 0.03 µM
IC50 [3, 10]: 1.76 ± 0.02 µM
IC50 [4]: 4.19 ± 0.08 µM
IC50 at 48 h [5]: 28.3 ± 3.57 µM
cytotoxic effect on the immortalized human breast epithelial cell line (in words) [6]: displayed cytotoxic effect
IC50 ([7]; Homo sapiens, summary statement of the abstract, cell lines not specified, read-out: IC50 against tested cancer cell lines): < 10 µM
cytotoxic activities against tested cancer cell lines (in words) ([7]; MTT): significant cytotoxic activities
cytotoxic activity against HCT-116 compared with dicerandrol B (in words) (HCT-116 (colon tumor)): less cytotoxic activities than dicerandrol B
cytotoxic activity against A549 compared with dicerandrol B (in words) (A549 (lung tumor)): less cytotoxic activities than dicerandrol B

CC(=O)OC[C@]12Oc3ccc(-c4ccc5c(c4O)C(=O)C4=C(O)C[C@@H](C)[C@@H](OC(C)=O)[C@@]4(CO)O5)c(O)c3C(=O)C1=C(O)C[C@@H](C)[C@H]2OC(C)=O [Compound 5, dicerandrol B]
IC50 ([1]; 48 h exposure): 8.65 ± 0.66 µM
IC50 [1, 8]: < 10 µM
IC50 [4]: 30.4 ± 1.1 µM
IC50 at 48 h [5]: 8.14 ± 1.27 µM
cytotoxic effect on the immortalized human breast epithelial cell line (in words) [6]: less marked cytotoxic effect

CC(=O)OC[C@]12Oc3ccc(-c4ccc5c(c4O)C(=O)C4=C(O)C[C@@H](C)[C@@H](OC(C)=O)[C@@]4(COC(C)=O)O5)c(O)c3C(=O)C1=C(O)C[C@@H](C)[C@H]2OC(C)=O [Compound 6, dicerandrol C]
IC50 [1, 8]: 44.1 ± 2.45 µM
IC50 [2, 9]: 42.6 ± 2.9 µM
IC50 [3, 10]: 36.5 ± 3.32 µM
IC50 [4]: > 50 µM
IC50 at 48 h [5]: 33 ± 2.74 µM
anticancer activities against MDA-MB-435, HCT-116 and Calu-3 (in words) ([7]; MTT, MDA-MB-435, HCT-116, Calu-3): weak anticancer activities

CC(=O)O[C@@H]1[C@H](C)CC(O)=C2C(=O)c3c(ccc(-c4ccc(O)c5c4O[C@@]4(CO)C(=C(O)C[C@@H](C)[C@H]4OC(C)=O)C5=O)c3O)O[C@@]21CO [Compound 7, deacetylphomoxanthone B]
IC50 [1, 8]: 14.4 ± 1.18 µM
IC50 [2, 9]: 7.12 ± 0.7 µM
IC50 [3, 10]: 4.14 ± 0.02 µM
IC50 [4]: 29.2 ± 1.19 µM
IC50 at 48 h [5]: > 50 µM
cytotoxic effect on the immortalized human breast epithelial cell line (in words) [6]: no cytotoxic effect
cytotoxic activities against tested cancer cell lines (in words) ([7]; MTT): excellent selective activities against HCT-116 and Calu-3 cell lines over other cancer cell lines

CC(=O)OC[C@]12Oc3ccc(-c4ccc(O)c5c4O[C@@]4(CO)C(=C(O)C[C@@H](C)[C@H]4OC(C)=O)C5=O)c(O)c3C(=O)C1=C(O)C[C@@H](C)[C@H]2OC(C)=O [Compound 8, penexanthone A]
IC50 ([1]; 48 h exposure): 7.9 ± 0.58 µM
IC50 [1, 8]: < 10 µM
IC50 ([2]; 48 h exposure): 6.92 ± 0.38 µM
IC50 [2, 9]: < 10 µM
IC50 ([3]; 48 h exposure): 6.44 ± 0.86 µM
IC50 [3, 10]: < 10 µM
IC50 [4]: 42.8 ± 3.58 µM
IC50 at 48 h [5]: 16.1 ± 1.57 µM
cytotoxic effect on the immortalized human breast epithelial cell line (in words) [6]: less marked cytotoxic effect

COc1cccc2c1C(=O)c1c(O)c3c(c(O)c1C2=O)C[C@@](O)(C(=O)CO)C[C@@H]3O[C@H]1C[C@H](N)[C@@H](O)[C@H](C)O1 [epirubicin, reference compound]
IC50 [2, 11]: 0.48 ± 0.029 µM
IC50 [3, 12]: 1.03 ± 0.1 µM
IC50 [4]: 0.96 ± 0.01 µM
IC50 at 48 h [5]: 0.48 ± 0.08 µM
